# In patent US6943183B2 (Pfizer Inc, priority 2000, dated 2005):
# Target: T1, SF9 affinity purified rat FPT (Rattus norvegicus, UniProt Q02293+Q04631)
# T1 construct: made in house; host or cells: Sf9 insect cells
# Test: PFT (FPT) inhibitory activity assay, radiolabeled farnesyl pyrophosphate and biotinyl peptide, streptavidin beads
# Format: biochemical
# Details: HEPES buffer pH 7.4, 30° C., 30 minutes; read-out: FTase IC50
# Description: The PFT or FPT inhibitory activity of compounds of the present invention were assayed in HEPES buffer (pH 7.4) containing 5 mM potassium phosphate and 20 μM ZnCl2. The solution also contained 5 mM DTT (dithiothreitol), 5 mM MgCl2, and 0.1% PEG 8000. Assays were performed in 96 well plates (Wallec) and employed solutions composed of varying concentrations of a compound of the present invention in 10% DMSO (dimethylsulfoxide). […] After incubation at 30° C. for 30 minutes, the reaction was terminated by diluting the reaction 2.5-fold with a stop buffer containing 1.5 M magnesium acetate, 0.2 M H3PO4, 0.5% BSA (bovine serum albumin), and strepavidin beads (Amersham) at a concentration of 1.3 mg/mL. […] The assay was also carried out without 5 mM potassium phosphate.
row,IC50,Compound
1,0.2 nM,"O=C(NC(CO)CO)c1cccc(S(=O)(=O)Cc2c(O[C@H](Cn3ccnc3)c3ccccc3)ccc3c2CCCC3=O)c1 [Compound 236, N-[2-Hydroxy-1-(hydroxymethyl)ethyl]-3-{[(2-{[(1S)-2-(1H-imidazol-1-yl)-1-phenylethyl]oxy}-5-oxo-5,6,7,8-tetrahydro-1-naphthalenyl)methyl]sulfonyl}benzamide]"
2,0.2 nM,"O=C(NC1CC1)c1ccccc1SCc1c(O[C@H](Cn2ccnc2)c2ccccc2)ccc2c1CCCC2=O [Compound 228, N-Cyclopropyl-2-{[(2-{[(1S)-2-(1H-imidazol-1-yl)-1-phenylethyl]oxy}-5-oxo-5,6,7,8-tetrahydro-1-naphthalenyl)methyl]sulfanyl}benzamide]"
3,0.2 nM,"C[C@@H](O)CNC(=O)c1ccc(SCc2c(O[C@H](Cn3ccnc3)c3ccccc3)ccc3c2CCCC3=O)cc1 [Compound 195, N-[(2R)-2-Hydroxypropyl]-4-{[(2-{[(1S)-2-(1H-imidazol-1-yl)-1-phenylethyl]oxy}-5-oxo-5,6,7,8-tetrahydro-1-naphthalenyl)methyl]sulfanyl}benzamide]"
4,5.5 nM,"O=C1CCCc2c1ccc(O[C@H](Cn1ccnc1CO)c1ccccc1)c2CS(=O)(=O)c1ccccc1 [Compound 10d, (S)-6{2-[2-(Hydroxymethyl)-1H-imidazol-1-yl]-1-phenylethoxy}-5-[(phenylsulfonyl)methyl]-3,4-dihydro-1(2H)-naphthalenone]"
5,0.3 nM,O=C1CCCc2c1ccc(O[C@H](Cn1ccnc1)c1ccccc1)c2COC1CCCC1 [Compound 17]
6,10 nM,"O=C(O)CCNC(=O)c1cccc(S(=O)(=O)Cc2c(O[C@H](Cn3ccnc3)c3ccccc3)ccc3c2CCCC3=O)c1 [Compound 168, N-3-{[(2-{[(1S)-2-(1H-Imidazol-1-yl)-1-phenylethyl]oxy}-5-oxo-5,6,7,8-tetrahydro-1-naphthalenyl)methyl]sulfonyl}benzoyl-β-alanine]"
7,0.2 nM,"CC(O)CNC(=O)c1cccc(SCc2c(O[C@H](Cn3ccnc3)c3ccccc3)ccc3c2CCCC3=O)c1 (stereo partly drawn) [Compound 258, N-(2-Hydroxypropyl)-3-{[(2-{[(1S)-2-(1H-imidazol-1-yl)-1-phenylethyl]oxy}-5-oxo-5,6,7,8-tetrahydro-1-naphthalenyl)methyl]sulfanyl}benzamide]"
8,14 nM,"Nc1c(O[C@H](Cn2ccnc2)c2ccccc2)ccc2c1CCCC2=O [Compound 37a, 5-Amino-6-((S)-2-imidazol-1-yl-1-phenyl-ethoxy)-3,4-dihydro-2H-naphthalen-1-one]"
9,0.55 nM,"O=C(NCc1ccco1)c1ccc(S(=O)(=O)Cc2c(O[C@H](Cn3ccnc3)c3ccccc3)ccc3c2CCCC3=O)cc1 [Compound 229, N-(2-Furylmethyl)-4-{[(2-{[(1S)-2-(1H-imidazol-1-yl)-1-phenylethyl]oxy}-5-oxo-5,6,7,8-tetrahydro-1-naphthalenyl)methyl]sulfonyl}benzamide]"
10,8 nM,"CNC(=O)c1cccc(S(=O)(=O)Cc2c(O[C@H](Cn3ccnc3)c3ccccc3)ccc3c2CCCC3=O)c1 [Compound 190, 3-{[(2-{[(1S)-2-(1H-imidazol-1-yl)-1-phenylethyl]oxy}-5-oxo-5,6,7,8-tetrahydro-1-naphthalenyl)methyl]sulfonyl}-N-methylbenzamide]"
11,30 nM,"O=C1CCCc2c1ccc(O[C@H](Cn1ccnc1)c1ccccc1)c2CSc1ccc(Br)cc1 [Compound 109, 6-((1S)-2-Imidazolyl-1-phenylethoxy)-5-[(4-bromophenylthio)methyl]-2,3,4-trihydronaphthalen-1-one]"
12,0.65 nM,"C[C@@H](O)CNC(=O)c1cccc(S(=O)(=O)Cc2c(O[C@H](Cn3ccnc3)c3ccccc3)ccc3c2CCCC3=O)c1 [Compound 204, N-[(2R)-2-Hydroxypropyl]-3-{[(2-{[(1S)-2-(1H-imidazol-1-yl)-1-phenylethyl]oxy}-5-oxo-5,6,7,8-tetrahydro-1-naphthalenyl)methyl]sulfonyl}benzamide]"
13,5.3 nM,"O=C1CCCc2c1ccc(O[C@H](Cn1ccnc1)c1ccccc1)c2CNc1cccc2cccnc12 [Compound 148, 6-((S)-2-Imidazol-1-yl-1-phenyl-ethoxy)-5-(quinolin-8-ylaminomethyl)-3,4-dihydro-2H-napthalen-1-one]"
14,0.2 nM,"COCCNC(=O)c1cccc(S(=O)(=O)Cc2c(O[C@H](Cn3ccnc3)c3ccccc3)ccc3c2CCCC3=O)c1 [Compound 263, 3-{[(2-{[(1S)-2-(1H-Inimidazol-1-yl)-1-phenylethyl]oxy}-5-oxo-5,6,7,8-tetrahydro-1-naphthalenyl)methyl]sulfonyl}-N-(2-methoxyethyl)benzamide]"
15,5 nM,"COc1cccc(OCc2c(O[C@H](Cn3ccnc3)c3ccccc3)ccc3c2CCCC3=O)c1 [Compound 105, 6-((1S)-2-Imidazolyl-1-phenylethoxy)-5-[(3-methoxyphenoxy)methyl]-2,3,4-trihydronaphthalen-1-one]"
16,8 nM,"C=C(C)Cc1c(OC(Cn2ccnc2)c2ccccc2)ccc2c1CCCC2=O (racemic) [Compound 52, (±)-6-(2-Imidazolyl-1-phenylethoxy)-5-(2-methylprop-2-enyl)-2,3,4-trihydronaphthalen-1-one]"
17,6 nM,O=C1CCCc2c1ccc(O[C@H](Cn1ccnc1)c1ccccc1)c2COc1ccccc1Cl [Compound 106]
18,0.2 nM,"O=C(NC1CCCC1)c1ccc(S(=O)(=O)Cc2c(O[C@H](Cn3ccnc3)c3ccccc3)ccc3c2CCCC3=O)cc1 [Compound 217, N-Cyclopentyl-4-{[(2-{[(1S)-2-(1H-imidazol-1-yl)-1-phenylethyl]oxy}-5-oxo-5,6,7,8-tetrahydro-1-naphthalenyl)methyl]sulfonyl}benzamide]"
19,4 nM,"CCOC(=O)C(C)NC(=O)c1ccccc1SCc1c(O[C@H](Cn2ccnc2)c2ccccc2)ccc2c1CCCC2=O (stereo partly drawn) [Compound 186, Ethyl 2-[(2-{[(2-{[(1S)-2-(1H-Imidazol-1-yl)-1-phenylethyl]oxy}-5-oxo-5,6,7,8-tetrahydro-1-naphthalenyl)methyl]sulfanyl}benzoyl)amino]propanoate]"
20,6 nM,"O=C(O)CCNC(=O)c1cccc(SCc2c(O[C@H](Cn3ccnc3)c3ccccc3)ccc3c2CCCC3=O)c1 [Compound 171, N-3-{[(2-{[(1S)-2-(1H-Imidazol-1-yl)-1-phenylethyl]oxy}-5-oxo-5,6,7,8-tetrahydro-1-naphthalenyl)methyl]sulfanyl}benzoyl-β-alanine]"
21,1.2 nM,O=C(Nc1c(O[C@H](Cn2ccnc2)c2ccccc2)ccc2c1CCCC2=O)c1cnccn1 [Compound 40c]
22,11 nM,COCc1c(O[C@H](Cn2ccnc2)c2ccccc2)ccc2c1CCCC2=O [Compound 64]
23,7 nM,"C=CCc1c(OC(Cn2ccnc2)c2cccs2)ccc2c1CCCC2=O (racemic) [Compound 61, (±)-6-(2-imidazolyl-1-(2-thienyl)ethoxy)-5-prop-2-ethyl-2,3,4-trihydronaphthalen-1-one]"
24,0.17 nM,"O=C1CCCc2c1ccc(O[C@H](Cn1ccnc1)c1cccnc1)c2NC(=O)c1nccc2ccccc12 [Compound 63d, Isoquinoline-1-carboxylic acid [2-((S)-2-imidazol-1-yl-1-pyridin-3-yl-ethoxy)-5-oxo-5,6,7,8-tetrahydro-naphthalen-1-yl]-amide]"
25,0.3 nM,"O=C1CCCc2c1ccc(O[C@H](Cn1ccnc1)c1ccccc1)c2CSc1ccccc1 [Compound 1, 6-((1S)-2-Imidazolyl-1-phenylethoxy)-5-(phenylthiomethyl)-2,3,4-trihydronaphthalen-1-one]"
